Experimental data from PubChem BioAssay AID330 (DTP/NCI, 2004).
Several values for one entry are separate records, joined by “and”; a condition that tells them apart may be missing. Identical values can stand only once. Inconclusive results and toxic doses are left out.

Tested on: P388 leukemia ip, CD2F1 mice, survival T/C
Experiment: NCI In Vivo Anticancer Drug Screen. Data for tumor model P388 Leukemia (intraperitoneal) in CD2F1 (CDF1) mice
Conditions: endpoint: median survival time, higher = longer survival
How it was run: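 Mice carrying the transplanted tumor received test compound or vehicle. Survival was recorded in each group, and the value is the treated-group measurement divided by that of the vehicle-treated control group.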

[1] = dose: 12.5 mg/kg/injection, schedule: Q01DX005 (ip), vehicle: saline with Tween-80
[2] = dose: 25.0 mg/kg/injection, schedule: Q01DX005 (ip), vehicle: saline with Tween-80
[3] = dose: 25.0 mg/kg/injection, schedule: Q01DX009 (ip), vehicle: saline
[4] = dose: 50.0 mg/kg/injection, schedule: Q01DX009 (ip), vehicle: saline
[5] = dose: 100.0 mg/kg/injection, schedule: Q01DX009 (ip), vehicle: saline
[6] = dose: 60.0 mg/kg/injection, schedule: Q01DX005 (ip), vehicle: saline with Tween-80
[7] = dose: 120.0 mg/kg/injection, schedule: Q01DX005 (ip), vehicle: saline with Tween-80
[8] = dose: 240.0 mg/kg/injection, schedule: Q01DX005 (ip), vehicle: saline with Tween-80
[9] = dose: 25.0 mg/kg/injection, schedule: Q01DX009 (ip), vehicle: other
[10] = dose: 50.0 mg/kg/injection, schedule: Q01DX009 (ip), vehicle: other
[11] = dose: 100.0 mg/kg/injection, schedule: Q01DX009 (ip), vehicle: saline with Tween-80
[12] = dose: 200.0 mg/kg/injection, schedule: Q01DX009 (ip), vehicle: saline with Tween-80
[13] = dose: 50.0 mg/kg/injection, schedule: Q01DX005 (ip), vehicle: Klucel (hydroxypropylcellulose) (HPC)
[14] = dose: 100.0 mg/kg/injection, schedule: Q01DX005 (ip), vehicle: Klucel (hydroxypropylcellulose) (HPC)
[15] = dose: 200.0 mg/kg/injection, schedule: Q01DX005 (ip), vehicle: Klucel (hydroxypropylcellulose) (HPC)
[16] = dose: 50.0 mg/kg/injection, schedule: Q01DX005 (ip), vehicle: saline with Tween-80
[17] = dose: 100.0 mg/kg/injection, schedule: Q01DX005 (ip), vehicle: saline with Tween-80
[18] = dose: 200.0 mg/kg/injection, schedule: Q01DX005 (ip), vehicle: saline with Tween-80
[19] = dose: 50.0 mg/kg/injection, schedule: Q01DX009 (ip), vehicle: saline with Tween-80

Structure (SMILES): CSc1ccc(N2C(N)=NC(N)=NC2(C)C)cc1
- T/C (dose: 6.25 mg/kg/injection, schedule: Q01DX005 (ip), vehicle: saline with Tween-80): 100 % of control
- T/C [1]: 102 % of control
- T/C [2]: 100 % of control

Structure (SMILES): CCc1nnc2c(C)c(C)nc(C)n12
- T/C (dose: 100.0 mg/kg/injection, schedule: Q04DX003 (ip), vehicle: saline with Tween-80): 94 % of control
- T/C (dose: 200.0 mg/kg/injection, schedule: Q04DX003 (ip), vehicle: saline with Tween-80): 100 % of control

Structure (SMILES): CC(=O)Nc1cc(C)ns1
- T/C [3]: 101 % of control
- T/C [4]: 109 % of control
- T/C [5]: 101 % of control
- T/C (dose: 200.0 mg/kg/injection, schedule: Q01DX009 (ip), vehicle: saline): 89 % of control

Structure (SMILES): NC(=O)NC1(N)C(=O)NC(=O)NC1=O
- T/C [6]: 94 % of control
- T/C [7]: 95 % of control
- T/C [8]: 93 % of control

Structure (SMILES): COC(=O)C1=C/CCCN/C=C\1C(=O)OC
- T/C (dose: 100.0 mg/kg/injection, schedule: Q04DX003 (ip), vehicle: Klucel (hydroxypropylcellulose) (HPC)): 97 % of control
- T/C (dose: 200.0 mg/kg/injection, schedule: Q04DX003 (ip), vehicle: Klucel (hydroxypropylcellulose) (HPC)): 97 % of control
- T/C (dose: 400.0 mg/kg/injection, schedule: Q04DX003 (ip), vehicle: Klucel (hydroxypropylcellulose) (HPC)): 98 % of control

Structure (SMILES): C=CCSc1nc(-c2ccc(Cl)cc2)c(C#N)c(=O)[nH]1
- T/C (dose: 100.0 mg/kg/injection, schedule: Q01DX001 (ip), vehicle: saline with Tween-80): 100 % of control
- T/C (dose: 200.0 mg/kg/injection, schedule: Q01DX001 (ip), vehicle: saline with Tween-80): 97 % of control
- T/C (dose: 400.0 mg/kg/injection, schedule: Q01DX001 (ip), vehicle: saline with Tween-80): 92 % of control

Structure (SMILES): Nn1c(-c2nn[nH]n2)nnc1-c1nn[nH]n1 (tested in a mixture with another compound)
- T/C (dose: 50.0 mg/kg/injection, schedule: Q01DX001 (ip), vehicle: Klucel (hydroxypropylcellulose) (HPC)): 109 % of control
- T/C (dose: 100.0 mg/kg/injection, schedule: Q01DX001 (ip), vehicle: Klucel (hydroxypropylcellulose) (HPC)): 107 % of control
- T/C (dose: 200.0 mg/kg/injection, schedule: Q01DX001 (ip), vehicle: Klucel (hydroxypropylcellulose) (HPC)): 103 % of control

Structure (SMILES): CCOC(=O)N(NC(=O)c1ccccc1)C(C)=O
- T/C (dose: 12.5 mg/kg/injection, schedule: Q01DX009 (ip), vehicle: other): 111 % of control
- T/C [9]: 109 % of control
- T/C [10]: 99 % of control

Structure (SMILES): O=C1CCSc2ccccc21
- T/C [11]: 95 % of control
- T/C [12]: 109 % of control

Structure (SMILES): COc1ccc(C2CN(C(=O)c3ccccc3)N=C(c3ccccc3)O2)cc1 (stereo not drawn)
- T/C [13]: 100 % of control
- T/C [14]: 101 % of control
- T/C [15]: 94 % of control

Structure (SMILES): CCC12OC(COc3ccccc3)CN1CCS2 (stereo not drawn)
- T/C [16]: 98 % of control
- T/C [17]: 107 % of control
- T/C [18]: 99 % of control

Structure (SMILES): COC1OCN(Cc2ccccc2)CC1(C)C (stereo not drawn)
- T/C [19]: 108 % of control
- T/C [11]: 120 % of control

Structure (SMILES): O=C1N(CCO)C2=CCCCC23c2[nH]c4ccccc4c2CCN13 (stereo not drawn)
- T/C [16]: 104 % of control
- T/C [17]: 102 % of control
- T/C [18]: 102 % of control

Structure (SMILES): CC1(C)COC1(c1ccccc1)c1cccnc1 (stereo not drawn)
- T/C [6]: 97 % of control
- T/C [7]: 102 % of control
- T/C [8]: 93 % of control

Structure (SMILES): CC1CN(C(=S)NNC(C)c2cc3ccccc3cn2)CC(C)O1 (stereo not drawn)
- T/C [1]: 97 % of control
- T/C [2]: 112 % of control

Structure (SMILES): COC(=O)C(CSCSCc1ccccc1)NC(=O)C(CSCc1ccccc1)NC(=O)CCNC(=O)OCc1ccccc1 (stereo not drawn)
- T/C (dose: 3.12 mg/kg/injection, schedule: Q04DX003 (ip), vehicle: saline): 114 % of control
- T/C (dose: 6.25 mg/kg/injection, schedule: Q04DX003 (ip), vehicle: saline): 100 % of control
- T/C (dose: 12.5 mg/kg/injection, schedule: Q04DX003 (ip), vehicle: saline): 98 % of control
- T/C (dose: 25.0 mg/kg/injection, schedule: Q04DX003 (ip), vehicle: saline): 112 % of control

Structure (SMILES): CCOC(=O)C(N=Nc1ccc(Br)c(C)c1)C(C)=O (stereo not drawn)
- T/C [16]: 107 % of control
- T/C [17]: 93 % of control
- T/C [18]: 97 % of control

Structure (SMILES): COc1ccc(C=C2C=C(C(C)(C)C)C(=O)C(C(C)(C)C)=C2)cc1
- T/C (dose: 50.0 mg/kg/injection, schedule: Q01DX005 (ip), vehicle: distilled water + alcohol): 108 % of control
- T/C (dose: 100.0 mg/kg/injection, schedule: Q01DX005 (ip), vehicle: distilled water + alcohol): 96 % of control
- T/C (dose: 200.0 mg/kg/injection, schedule: Q01DX005 (ip), vehicle: distilled water + alcohol): 108 % of control

Structure (SMILES): COc1ccc(CC(N)c2ccccc2)cc1 (stereo not drawn)
- T/C [4]: 96 % of control
- T/C [5]: 98 % of control

Structure (SMILES): CC(=O)N/C(=C/c1ccccc1)C(=O)N1CCCC1C(=O)O (stereo not drawn)
- T/C (dose: 12.5 mg/kg/injection, schedule: Q01DX009 (ip), vehicle: saline): 105 % of control
- T/C [3]: 104 % of control
- T/C [4]: 96 % of control

Structure (SMILES): N#CCCN(C(=O)Nc1ccc(Cl)c(Cl)c1)C1CCCCC1
- T/C (dose: 12.5 mg/kg/injection, schedule: Q01DX009 (ip), vehicle: saline with Tween-80): 98 % of control
- T/C (dose: 25.0 mg/kg/injection, schedule: Q01DX009 (ip), vehicle: saline with Tween-80): 101 % of control and 104 % of control
- T/C [19]: 100 % of control and 103 % of control
- T/C [11]: 91 % of control and 97 % of control

Structure (SMILES): C[Si](C)(C)CN(Cc1ccccc1)C(=O)c1ccccc1[N+](=O)[O-]
- T/C [16]: 105 % of control
- T/C [17]: 98 % of control
- T/C [18]: 103 % of control

Structure (SMILES): O=c1[nH]cnc2sc3c(c12)CCC3
- T/C [6]: 100 % of control
- T/C [7]: 88 % of control
- T/C [8]: 94 % of control

Structure (SMILES): CCOC(=O)C(CCC#N)(C(=O)Cc1ccc(OC)c(OC)c1)C(=O)OCC
- T/C [9]: 101 % of control
- T/C [10]: 103 % of control
- T/C (dose: 100.0 mg/kg/injection, schedule: Q01DX009 (ip), vehicle: other): 106 % of control
- T/C (dose: 200.0 mg/kg/injection, schedule: Q01DX009 (ip), vehicle: other): 103 % of control
- T/C (dose: 400.0 mg/kg/injection, schedule: Q01DX009 (ip), vehicle: other): 103 % of control

Structure (SMILES): C[N+](C)(C)N
- T/C [3]: 102 % of control
- T/C [4]: 100 % of control
- T/C [5]: 100 % of control

Structure (SMILES): CC(=O)OC(C[Se]c1ccccc1)OC(C)=O
- T/C (dose: 37.5 mg/kg/injection, schedule: Q01DX001 (ip), vehicle: saline with Tween-80): 105 % of control
- T/C (dose: 75.0 mg/kg/injection, schedule: Q01DX001 (ip), vehicle: saline with Tween-80): 99 % of control and 105 % of control

Structure (SMILES): CCS(=O)C(F)(F)C(F)Cl (stereo not drawn)
- T/C [16]: 97 % of control
- T/C [17]: 100 % of control
- T/C [18]: 100 % of control

Structure (SMILES): COC1C=COC2(C)Oc3c(C)c(O)c4c(O)c(c(C5SCCS5)c(O)c4c3C2=O)NC(=O)C(C)=C/C=C\C(C)C2OC(C)(C)OC(C2C)C(C)C(OC(C)=O)C1C (stereo not drawn)
- T/C [19]: 109 % of control
- T/C [11]: 102 % of control
- T/C [12]: 96 % of control

Structure (SMILES): CCOC(=O)/C=C(\C)C(F)(F)F
- T/C (dose: 15.0 mg/kg/injection, schedule: Q01DX005 (ip), vehicle: saline with Tween-80): 95 % of control
- T/C (dose: 30.0 mg/kg/injection, schedule: Q01DX005 (ip), vehicle: saline with Tween-80): 100 % of control and 103 % of control
- T/C [6]: 98 % of control and 104 % of control and 94 % of control
- T/C [7]: 100 % of control and 101 % of control
- T/C [8]: 106 % of control and 111 % of control

Structure (SMILES): O=c1ssc2ncccc12
- T/C [6]: 104 % of control
- T/C [7]: 103 % of control
- T/C [8]: 117 % of control

Structure (SMILES): CCOC(=O)Nc1cc2c(c(N)n1)N=C(c1ccc(Cl)cc1Cl)CN2
- T/C [1]: 157 % of control
- T/C [2]: 90 % of control

Structure (SMILES): N#Cc1c(-c2ccc(Cl)cc2)cn2c1[nH]c(=O)c1cc(Br)ccc12
- T/C [6]: 99 % of control
- T/C [7]: 102 % of control
- T/C [8]: 95 % of control

Structure (SMILES): Cc1noc(NC(=O)Nc2ccccc2F)c1C#N
- T/C [16]: 91 % of control
- T/C [17]: 100 % of control

Structure (SMILES): COC(=O)C1=NOC(COc2ccc([N+](=O)[O-])cc2)C1 (stereo not drawn)
- T/C [6]: 100 % of control
- T/C [7]: 93 % of control
- T/C [8]: 86 % of control

Structure (SMILES): O=C(NC(Cc1ccc(Br)cc1)C(=O)O)c1cccc(Br)c1 (stereo not drawn)
- T/C [13]: 91 % of control
- T/C [14]: 102 % of control
- T/C [15]: 104 % of control

Structure (SMILES): CC(=O)OC(C)C(C)[N+](C)(C)C (stereo not drawn)
- T/C (dose: 100.0 mg/kg/injection, schedule: Q04DX002 (ip), vehicle: saline): 94 % of control

Structure (SMILES): CCCCc1ccc(NC(=O)On2c3ccccc3c3ccccc32)cc1
- T/C [13]: 96 % of control
- T/C [14]: 94 % of control
- T/C [15]: 95 % of control
